The results in this text go back to patent publication US10357486B2, “Treatment of cognitive impairment with PDE4 inhibitor” (Universiteit Maastricht, priority 2013, dated 2019).

Structures are written as SMILES.

The subject of experiment [1] is 60 to 80 years old subjects (Impaired Elderly and Healthy Elderly). The experiment in a line: Spatial Memory Task and Stroop task in 60 to 80 years old subjects, interim analysis. Particulars: 100, 250, 1000 mcg. The experiment is classed as in vivo, human. As for the experimental part:
The study is conducted according to a double-blind, placebo-controlled, four-period cross-over design. Forty healthy subjects, both male and female within an age range of 60 to 80 years are planned to be included in the study in 2 groups: 1) 20 subjects with a memory performance between 1-2 Standard Deviation below the average for their age, gender, and educated level (Impaired Elderly) and 2) 20 subjects with age (±3 years), gender, and educational level matched (in order to speed up the study matching was stopped after the interim analysis) with an average memory performance between 0.5 Standard Deviation below and 0.5 Standard Deviation above from normative values (Healthy Elderly). Classification in terms of impaired or healthy elderly will be determined by a one-off testing of memory performance using the Rey Verbal Learning Task (Rey A; L'examen psychologique dans les cas d'encephalopathy traumatique 1958 Paris; Presses Universitaire de France; or Van der Elst et al; J Int Neuropsychol Soc 2005, 11 (3), pp 290-302) according to fully standardized procedures as applied in The Maastricht Aging Study (Jolles et al; Maastricht Aging Study; determinants of cognitive aging; Maastricht, The Netherlands, Neuropsych Publishers 1995). […]

Experiment [2] concerns healthy adults (18 to 35 years). The experiment in a line: Spatial Memory Task, Stroop task and Continuous Performance task in healthy adults. The experiment is classed as in vivo, human. To be noted: 100 mcg, 300 mcg, 1000 mcg single administration. As for the experimental part: In addition to the VLT (immediate recall and delayed recall), the subjects were also tested in the Spatial Memory Task, the Stroop task and the Continuous Performance task (a description of these additional cognitive battery tests can be found in Example 3).
Spatial memory task (SMT) The spatial memory task assesses spatial memory and is based on the object relocation task by Postma and colleagues (Kessels, Postma et al, Behav Res Methods Instrum Comput. 1999, Vol 31(3) pp 423-428). It consists of one immediate and two delayed conditions. In the immediate condition, a set of 10 pictures will be presented one by one on different locations within a white square on a computer screen. All pictures are everyday, easy-to-name objects, presented in gray scale (±3.5×5 cm). Each picture will be presented for 2000 msec with an interstimulus interval of 1000 msec. […]
Twenty-four hours after the immediate condition, subjects will return to the lab and perform the task again. […] As with the other tests, the EEG will be recorded during this task and this will later be analysed. No EEG will be recorded during the 24h-measurement. […]
Stroop task The Stroop task is well known for its ability to induce interference, and assesses response inhibition and focused attention. […] However, because of the urge to read the printed words (even if one is asked to ignore them) interference occurs. […]

With `O=C(Nc1c(Cl)cncc1Cl)c1ccc(OC(F)F)c(OCC2CC2)c1` [roflumilast, N-(3,5-dichloropyridin-4-yl)-3-cyclopropylmethoxy-4-difluoromethoxybenzamide], the “difference between placebo and drug treatment in the Spatial Memory Task and Stroop task” value in experiment [1] is given as “No statistically significant differences”. Further, the “difference between placebo and drug treatment in the Spatial Memory Task, the Stroop task and the Continuous Performance task” value in experiment [2] is “No statistically significant differences”.
